Assay results taken from US20260097017A1, “TASIPIMIDINE AND CYP2D6 INHIBITOR COMBINATION TREATMENT” (ORION CORPORATION, priority 2022, published 2026).
Where two headings read alike, the source gives them in different places.

How the values were obtained:
[1] = Caco-2 permeability (PBPK input parameter); assay type: in vitro ADME; conditions: human, input parameter of the PBPK model
From the text: (§1) A physiologically based pharmacokinetic (PBPK) model was used to simulate the plasma exposure of tasipimidine in fasted healthy 30 years old males of 70 kg with different CYP2D6 phenotypes. Simulations were produced with the commercial GastroPlus® 9.8.2 software.

CYP1A2 = target: T1, CYP1A2 (Homo sapiens, UniProt P05177); assay: Recombinant human CYP incubations (enzyme identification); assay type: in vitro ADME
T1 construct: purchased; host or cells: baculovirus-transfected insect cells
T1 sequence (P05177 1-516): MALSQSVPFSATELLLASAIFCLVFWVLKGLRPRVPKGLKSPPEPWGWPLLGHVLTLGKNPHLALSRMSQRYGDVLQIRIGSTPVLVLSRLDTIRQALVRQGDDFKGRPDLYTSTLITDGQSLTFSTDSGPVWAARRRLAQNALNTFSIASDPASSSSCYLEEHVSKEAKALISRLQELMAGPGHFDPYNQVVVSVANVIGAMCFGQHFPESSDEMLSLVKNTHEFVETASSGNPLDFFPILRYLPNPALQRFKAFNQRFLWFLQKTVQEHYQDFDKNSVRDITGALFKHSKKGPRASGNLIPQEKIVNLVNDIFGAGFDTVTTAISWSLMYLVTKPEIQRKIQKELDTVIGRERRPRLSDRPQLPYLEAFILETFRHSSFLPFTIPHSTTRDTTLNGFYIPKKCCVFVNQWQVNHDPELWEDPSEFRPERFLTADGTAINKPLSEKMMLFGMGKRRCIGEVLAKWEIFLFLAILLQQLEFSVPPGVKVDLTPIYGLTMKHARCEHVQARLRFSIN
Protocol: (§2) The objective of these studies was to identify enzymes involved in the metabolism of tasipimidine in human. The test substance tasipimidine and the reference compounds for main tasipimidine metabolites 1-(4,5-dihydro-1H-imidazol-2-yl) isochroman-5-ol (metabolite 1), 2-(5-methoxyisochroman-1-yl)-1H-imidazole (metabolite 2), and 1-(1H-imidazol-2-yl) isochroman-5-ol (metabolite 3) were supplied by Orion Pharma. To further support the findings of recombinant enzyme incubations tasipimidine was incubated with human hepatocytes with two enzyme inhibitors, i.e. 1-aminobenzotriazole (ABT, non-selective CYP inhibitor), and quinidine (CYP2D6 inhibitor).
(§3) The analysis for disappearance of tasipimidine and the identification of the formed metabolites were carried out by using a high-resolution liquid chromatographic-mass spectrometer supported by accurate masses (UPLC-HRMS). Firstly, metabolic stability of tasipimidine in different in vitro matrices was determined by monitoring the disappearance of the parent compound as a function of time. Moreover, structures of the formed metabolites were characterized from their respective product ion spectra. The synthetized reference compounds of the metabolites were used to confirm the identification of those specific metabolites.

CYP2C19 = target: T2, CYP2C19 (Homo sapiens, UniProt P33261); assay: as above; assay type: in vitro ADME
T2 construct: purchased; host or cells: baculovirus-transfected insect cells
T2 sequence (P33261 whole entry): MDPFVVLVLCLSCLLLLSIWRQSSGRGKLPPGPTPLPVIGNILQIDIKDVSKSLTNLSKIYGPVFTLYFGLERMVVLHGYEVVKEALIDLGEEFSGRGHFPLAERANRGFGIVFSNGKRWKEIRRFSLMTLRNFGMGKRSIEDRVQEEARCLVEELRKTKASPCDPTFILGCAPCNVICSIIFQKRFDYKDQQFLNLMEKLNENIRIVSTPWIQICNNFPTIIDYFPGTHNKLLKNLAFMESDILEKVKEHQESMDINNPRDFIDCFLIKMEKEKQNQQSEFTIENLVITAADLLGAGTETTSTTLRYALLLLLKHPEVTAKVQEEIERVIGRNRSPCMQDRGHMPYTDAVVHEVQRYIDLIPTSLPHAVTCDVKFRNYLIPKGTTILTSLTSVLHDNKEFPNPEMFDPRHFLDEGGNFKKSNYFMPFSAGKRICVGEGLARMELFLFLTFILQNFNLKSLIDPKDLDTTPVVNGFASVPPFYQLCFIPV
Protocol: as §2, §3

[2] = Physicochemical input parameters of the PBPK model; conditions: input parameter of the PBPK model
From the text: as §1

[3] = Blood to plasma ratio and fraction unbound in plasma (PBPK input parameters); assay type: in vitro ADME; conditions: human, input parameter of the PBPK model
From the text: as §1

CYP2D6 = CYP2D6 (Homo sapiens, UniProt P10635); assay: CYP2D6 kinetic parameters (PBPK input parameters); assay type: in vitro ADME; conditions: input parameter of the PBPK model
Sequence of CYP2D6 (P10635 whole entry): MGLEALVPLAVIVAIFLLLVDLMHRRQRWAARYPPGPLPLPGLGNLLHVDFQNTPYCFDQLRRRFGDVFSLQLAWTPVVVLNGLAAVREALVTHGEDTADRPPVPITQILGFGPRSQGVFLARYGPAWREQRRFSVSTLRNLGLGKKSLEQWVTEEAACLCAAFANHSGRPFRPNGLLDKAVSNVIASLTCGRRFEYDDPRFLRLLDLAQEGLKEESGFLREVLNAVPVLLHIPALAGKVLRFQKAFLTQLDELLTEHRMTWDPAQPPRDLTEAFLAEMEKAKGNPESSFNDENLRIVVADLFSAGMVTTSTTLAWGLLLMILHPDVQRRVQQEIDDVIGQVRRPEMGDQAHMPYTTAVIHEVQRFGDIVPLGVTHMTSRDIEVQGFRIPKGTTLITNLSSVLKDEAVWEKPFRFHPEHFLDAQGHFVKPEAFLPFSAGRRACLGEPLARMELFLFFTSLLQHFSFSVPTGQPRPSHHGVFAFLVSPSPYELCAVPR
From the text: as §1

[4] = First-in-man single-dose escalation study, plasma PK; assay type: in vivo; conditions: both sexes, human, po, mean
Protocol: The first-in-man study was a randomized, double-blind, placebo-controlled, single-dose escalation study with healthy female and male subjects aged 18-44 years. The subjects were allocated to cohorts of 8 subjects of which 6 received active treatment and 2 received placebo. Each subject received either 1 dose of tasipimidine oral solution or 1 dose of placebo oral solution during the study. The studied doses of tasipimidine were 10, 25, 50, 100, and 150 μg as oral solution.
(§4) The subjects were genotyped for CYP2D6 on screening. The translation of CYP2D6 genotype to CYP2D6 phenotype was done according to the national consensus published by the Dutch Pharmacogenetics Working Group from KNMP (https://www.knmp.nl/index.php/media/113). The subjects with CYP2D6 poor metabolizer genotype were excluded from the study. The translation of CYP2D6 genotype to activity score was done according to the CYP2D6 Allele Functionality Table of PharmGKB (https://www.pharmgkb.org/page/cyp2d6RefMaterials).
Frequent blood samples were taken through an intravenous cannula for the assessment of the concentration of tasipimidine and its metabolite 1 in plasma. The sampling times were before (0 h) and 15 min, 30 min, 45 min, 1, 1.5, 2, 3, 4, 5, 6, 8, 10, 12, 16, and 24 hours after the study treatment administration. The PK parameters were calculated from the plasma concentration-time data by noncompartmental method using the commercial Phoenix WinNonlin software version 8.3.

[5] = dogs, triggered by noise or owner departure; cited from earlier work
[6] = Paroxetine co-treatment crossover PK study in healthy subjects; assay type: in vivo, human; conditions: 10 μg oral, mean, n = 5; for AUC(0-inf) / Cmax / half-life: human, plasma; for half-life: read-out: t½ (converted)
Protocol: Effect of co-treatment with a strong CYP2D6 inhibitor paroxetine on the PK of tasipimidine was studied. The study was an open label, crossover study with 5 healthy female and/or male subjects aged 26-51 years. The study started with a 8 days long once daily treatment of paroxetine 20 mg tablet. On the last day of paroxetine treatment, a single 10 μg dose of tasipimidine as oral solution was administered 1 h after the paroxetine intake after an overnight fast.
as §4
Frequent blood samples were taken through an intravenous cannula for the assessment of the concentration of tasipimidine and its metabolite 1 in plasma. The sampling times were before (0 h) and 20 min, 40 min, 1, 1.5, 2, 2.5, 3, 3.5, 4, 5, 6, 8, 12, 24, 36, and 48 hours after the study treatment administration. The PK parameters were calculated from the plasma concentration-time data by noncompartmental method using the commercial Phoenix WinNonlin software version 8.3.

[7] = Renal clearance (PBPK input parameter); conditions: human, in vivo; input parameter of the PBPK model
From the text: as §1

[8] = with paroxetine 20 mg once daily for 8 days

## COc1cccc2c1CCOC2C1=NCCN1 (centres unmarked) [tasipimidine, 2-(5-methoxyisochroman-1-yl)-4,5-dihydro-1H-imidazole]
[1]
  Papp: 15.4 ×10⁻⁶ cm/s
CYP1A2
  contribution of enzyme to tasipimidine metabolism: minor contributors
CYP2C19
  contribution of enzyme to tasipimidine metabolism: minor contributors
[2]
  logP: 1.66
  pKa: 9.24
[3]; blood and plasma
  blood plasma ratio: 1.13
[3]; plasma
  fraction unbound: 0.86
CYP2D6
  Vmax for CYP2D6: 0.000043 mg/s
[4]; 10 ug, 10 μg single oral dose, corrected by CYP2D6 genotype based activity score, n = 6, read-out: AUCinf * AS
  AUC(0-inf): 0.09 ng·h/mL
[4]; 10 ug, 10 μg single oral solution dose, n = 6, healthy subjects, read-out: AUCinf
  AUC(0-inf): 0.052 ng·h/mL
[4]; 25 ug, 25 μg single oral dose, corrected by CYP2D6 genotype based activity score, n = 6, read-out: AUCinf * AS
  AUC(0-inf): 0.254 ng·h/mL
[4]; 25 ug, 25 μg single oral solution dose, n = 6, healthy subjects, read-out: AUCinf
  AUC(0-inf): 0.186 ng·h/mL
[4]; 50 ug, 50 μg single oral dose, corrected by CYP2D6 genotype based activity score, n = 6, read-out: AUCinf * AS
  AUC(0-inf): 0.475 ng·h/mL
[4]; 50 ug, 50 μg single oral solution dose, n = 6, healthy subjects, read-out: AUCinf
  AUC(0-inf): 0.36 ng·h/mL
[4]; 100 ug, 100 μg single oral dose, corrected by CYP2D6 genotype based activity score, n = 6, read-out: AUCinf * AS
  AUC(0-inf): 1.03 ng·h/mL
[4]; 100 ug, 100 μg single oral solution dose, n = 6, healthy subjects, read-out: AUCinf
  AUC(0-inf): 1.03 ng·h/mL
[4]; 150 ug, 150 μg single oral dose, corrected by CYP2D6 genotype based activity score, n = 6, read-out: AUCinf * AS
  AUC(0-inf): 2.03 ng·h/mL
[4]; 150 ug, 150 μg single oral solution dose, n = 6, healthy subjects, read-out: AUCinf
  AUC(0-inf): 1.74 ng·h/mL
[5]
  relief of situational anxiety and fear: effective in relieving situational anxiety and fear
[6]
  AUCinf ratio with/without paroxetine: 3.1
  Cmax ratio with/without paroxetine: 1.9
  t½ ratio with/without paroxetine: 1.7
[6]; 10 ug, without paroxetine
  AUC(0-inf): 0.106 ng·h/mL
  Cmax: 0.026 ng/mL
  half-life: 2.6 h
[6]; [8]
  AUC(0-inf): 0.281 ng·h/mL
  Cmax: 0.047 ng/mL
  half-life: 4.3 h
[7]
  CL renal: 105 mL/min
